Experimental data reported in patent US20260355323A1, “CEREBLON-RECRUITING BCL-XL/BCL-2 DUAL DEGRADERS” (University of Florida Research Foundation, Incorporated, priority 2022, published 2026).

Assays:
[1] = system: MOLT-4 acute lymphoblastic leukemia cells; experiment: Cell viability, tetrazolium-based MTS assay, MOLT-4; settings: Homo sapiens, MOLT-4, 48 h; read-out: Anti-Cancer Activity EC50 (48 hr), MOLT-4
Experimental: (§1) Acute lymphoblastic leukemia cells (MOLT-4 and RS4;11) were incubated with increasing concentrations of Bcl-xL/Bcl-2 degraders for 48 h. Cell viability was measured by tetrazolium-based MTS assay.

[2] = system: RS4;11 acute lymphoblastic leukemia cells; experiment: Cell viability, tetrazolium-based MTS assay, RS4;11; settings: Homo sapiens, RS4;11, 48 h, read-out: Anti-Cancer Activity EC50 (48 hr), RS4
Experimental: as §1

[3] = system: WI-38 irradiation-induced senescent cells (IR-SC); experiment: Senolytic activity, cell viability (PrestoBlue HS), WI-38 IR-SC; type: cell-based; settings: Homo sapiens, 72 h
Experimental: To induce senescence in WI-38 and HUVEC, cells were subjected to x-ray irradiation at 20 Gray using X-RAD 320 biological irradiator. Following between 10 to 15 days after irradiation, senescence was induced in cells, and irradiation-induced senescent cells (IR-SC) were then used for cell viability and Western blotting tests.
(§2) WI-38 and HUVEC cells were incubated with increasing concentrations of degraders for 72 h. Cell viability was measured using PrestoBlue HS cell viability reagent.

[4] = system: WI-38 NC; experiment: Senolytic activity, cell viability (PrestoBlue HS), WI-38 NC; type: cell-based; settings: Homo sapiens, 72 h
Experimental: as §2

Row | SMILES | EC50 [1] | EC50 [2] | EC50 [3] | EC50 [4]
1 | C[C@@]1(CN2CCN(C(=O)CCCN3CCN(c4ccc5c(c4)CN(C4CCC(=O)NC4=O)C5=O)CC3)CC2)CCC(c2ccc(Cl)cc2)=C(CN2CCN(c3ccc(C(=O)NS(=O)(=O)c4ccc(N[C@H](CCN5CCCOCC5)CSc5ccccc5)c(S(=O)(=O)C(F)(F)F)c4)cc3)CC2)C1 (stereo partly drawn) [Compound 2, N-((4-(((R)-4-(1,4-oxazepan-4-yl)-1-(phenylthio)butan-2-yl)amino)-3-((trifluoromethyl)sulfonyl)phenyl)sulfonyl)-4-(4-(((4R)-4′-chloro-4-((4-(4-(4-(2-(2,6-dioxopiperidin-3-yl)-1-oxoisoindolin-5-yl)piperazin-1-yl)butanoyl)piperazin-1-yl)methyl)-4-methyl-3,4,5,6-tetrahydro-[1,1′-biphenyl]-2-yl)methyl)piperazin-1-yl)benzamide] | < 1 nM | < 1 nM | 1 to 10 nM | > 10000 nM
2 | C[C@@]1(CN2CCN(C(=O)CN3CCC(C#Cc4ccc5c(c4)CN(C4CCC(=O)NC4=O)C5=O)CC3)CC2)CCC(c2ccc(Cl)cc2)=C(CN2CCN(c3ccc(C(=O)NS(=O)(=O)c4ccc(N[C@H](CCN5CCCOCC5)CSc5ccccc5)c(S(=O)(=O)C(F)(F)F)c4)cc3)CC2)C1 (stereo partly drawn) [Compound 5, N-((4-(((R)-4-(1,4-oxazepan-4-yl)-1-(phenylthio)butan-2-yl)amino)-3-((trifluoromethyl)sulfonyl)phenyl)sulfonyl)-4-(4-(((4R)-4′-chloro-4-((4-(2-(4-((2-(2,6-dioxopiperidin-3-yl)-1-oxoisoindolin-5-yl)ethynyl)piperidin-1-yl)acetyl)piperazin-1-yl)methyl)-4-methyl-3,4,5,6-tetrahydro-[1,1′-biphenyl]-2-yl)methyl)piperazin-1-yl)benzamide] | < 1 nM | < 1 nM | 10 to 100 nM | > 10000 nM
3 | C[C@@]1(CN2CCN(C(=O)CN3CCN(CCCc4ccc5c(c4)CN(C4CCC(=O)NC4=O)C5=O)CC3)CC2)CCC(c2ccc(Cl)cc2)=C(CN2CCN(c3ccc(C(=O)NS(=O)(=O)c4ccc(N[C@H](CCN5CCCOCC5)CSc5ccccc5)c(S(=O)(=O)C(F)(F)F)c4)cc3)CC2)C1 (stereo partly drawn) [Compound 6, N-((4-(((R)-4-(1,4-oxazepan-4-yl)-1-(phenylthio)butan-2-yl)amino)-3-((trifluoromethyl)sulfonyl)phenyl)sulfonyl)-4-(4-(((4R)-4′-chloro-4-((4-(2-(4-(3-(2-(2,6-dioxopiperidin-3-yl)-1-oxoisoindolin-5-yl)propyl)piperazin-1-yl)acetyl)piperazin-1-yl)methyl)-4-methyl-3,4,5,6-tetrahydro-[1,1′-biphenyl]-2-yl)methyl)piperazin-1-yl)benzamide] | < 1 nM | < 1 nM | 1 to 10 nM | > 10000 nM
4 | C[C@@]1(CN2CCN(C(=O)CN3CCC(CCc4ccc5c(c4)CN(C4CCC(=O)NC4=O)C5=O)CC3)CC2)CCC(c2ccc(Cl)cc2)=C(CN2CCN(c3ccc(C(=O)NS(=O)(=O)c4ccc(N[C@H](CCN5CCCOCC5)CSc5ccccc5)c(S(=O)(=O)C(F)(F)F)c4)cc3)CC2)C1 (stereo partly drawn) [Compound 7, N-((4-(((R)-4-(1,4-oxazepan-4-yl)-1-(phenylthio)butan-2-yl)amino)-3-((trifluoromethyl)sulfonyl)phenyl)sulfonyl)-4-(4-(((4R)-4′-chloro-4-((4-(2-(4-(2-(2-(2,6-dioxopiperidin-3-yl)-1-oxoisoindolin-5-yl)ethyl)piperidin-1-yl)acetyl)piperazin-1-yl)methyl)-4-methyl-3,4,5,6-tetrahydro-[1,1′-biphenyl]-2-yl)methyl)piperazin-1-yl)benzamide] | < 1 nM | < 1 nM | 1 to 10 nM | > 10000 nM
5 | C[C@@]1(CN2CCN(C(=O)CN3CCC(CN4CCN(c5ccc6c(c5)CN(C5CCC(=O)NC5=O)C6=O)CC4)CC3)CC2)CCC(c2ccc(Cl)cc2)=C(CN2CCN(c3ccc(C(=O)NS(=O)(=O)c4ccc(N[C@H](CCN5CCCOCC5)CSc5ccccc5)c(S(=O)(=O)C(F)(F)F)c4)cc3)CC2)C1 (stereo partly drawn) [Compound 8, N-((4-(((R)-4-(1,4-oxazepan-4-yl)-1-(phenylthio)butan-2-yl)amino)-3-((trifluoromethyl)sulfonyl)phenyl)sulfonyl)-4-(4-(((4R)-4′-chloro-4-((4-(2-(4-((4-(2-(2,6-dioxopiperidin-3-yl)-1-oxoisoindolin-5-yl)piperazin-1-yl)methyl)piperidin-1-yl)acetyl)piperazin-1-yl)methyl)-4-methyl-3,4,5,6-tetrahydro-[1,1′-biphenyl]-2-yl)methyl)piperazin-1-yl)benzamide] | < 1 nM | < 1 nM | 1 to 10 nM | > 10000 nM
6 | C[C@@]1(CN2CCN(c3ccc4c(c3)CN(C3CCC(=O)NC3=O)C4=O)CC2)CCC(c2ccc(Cl)cc2)=C(CN2CCN(c3ccc(C(=O)NS(=O)(=O)c4ccc(N[C@H](CCN5CCCOCC5)CSc5ccccc5)c(S(=O)(=O)C(F)(F)F)c4)cc3)CC2)C1 (stereo partly drawn) [Compound 127, N-((4-(((R)-4-(1,4-oxazepan-4-yl)-1-(phenylthio)butan-2-yl)amino)-3-((trifluoromethyl)sulfonyl)phenyl)sulfonyl)-4-(4-(((4R)-4′-chloro-4-((4-(2-(2,6-dioxopiperidin-3-yl)-1-oxoisoindolin-5-yl)piperazin-1-yl)methyl)-4-methyl-3,4,5,6-tetrahydro-[1,1′-biphenyl]-2-yl)methyl)piperazin-1-yl)benzamide] | < 1 nM | < 1 nM |  | > 10000 nM
7 | CC1CN(c2ccc3c(c2)CN(C2CCC(=O)NC2=O)C3=O)CC(C)N1CC1CN(C[C@]2(C)CCC(c3ccc(Cl)cc3)=C(CN3CCN(c4ccc(C(=O)NS(=O)(=O)c5ccc(N[C@H](CCN6CCCOCC6)CSc6ccccc6)c(S(=O)(=O)C(F)(F)F)c5)cc4)CC3)C2)C1 (stereo partly drawn) [Compound 129, N-((4-(((R)-4-(1,4-oxazepan-4-yl)-1-(phenylthio)butan-2-yl)amino)-3-((trifluoromethyl)sulfonyl)phenyl)sulfonyl)-4-(4-(((4R)-4′-chloro-4-((3-((4-(2-(2,6-dioxopiperidin-3-yl)-1-oxoisoindolin-5-yl)-2,6-dimethylpiperazin-1-yl)methyl)azetidin-1-yl)methyl)-4-methyl-3,4,5,6-tetrahydro-[1,1′-biphenyl]-2-yl)methyl)piperazin-1-yl)benzamide] | < 1 nM | < 1 nM |  | > 10000 nM
8 | C[C@@]1(CN2CCC(CN3CC4CC3CN4c3ccc4c(c3)CN(C3CCC(=O)NC3=O)C4=O)CC2)CCC(c2ccc(Cl)cc2)=C(CN2CCN(c3ccc(C(=O)NS(=O)(=O)c4ccc(N[C@H](CCN5CCCOCC5)CSc5ccccc5)c(S(=O)(=O)C(F)(F)F)c4)cc3)CC2)C1 (stereo partly drawn) [Compound 130, N-((4-(((R)-4-(1,4-oxazepan-4-yl)-1-(phenylthio)butan-2-yl)amino)-3-((trifluoromethyl)sulfonyl)phenyl)sulfonyl)-4-(4-(((4R)-4′-chloro-4-((4-((5-(2-(2,6-dioxopiperidin-3-yl)-1-oxoisoindolin-5-yl)-2,5-diazabicyclo[2.2.1]heptan-2-yl)methyl)piperidin-1-yl)methyl)-4-methyl-3,4,5,6-tetrahydro-[1,1′-biphenyl]-2-yl)methyl)piperazin-1-yl)benzamide] | 1 to 10 nM | 1 to 10 nM |  | > 10000 nM
9 | C[C@@]1(CN2CC(CN3CC4CC3CN4c3ccc4c(c3)CN(C3CCC(=O)NC3=O)C4=O)C2)CCC(c2ccc(Cl)cc2)=C(CN2CCN(c3ccc(C(=O)NS(=O)(=O)c4ccc(N[C@H](CCN5CCCOCC5)CSc5ccccc5)c(S(=O)(=O)C(F)(F)F)c4)cc3)CC2)C1 (stereo partly drawn) [Compound 131, N-((4-(((R)-4-(1,4-oxazepan-4-yl)-1-(phenylthio)butan-2-yl)amino)-3-((trifluoromethyl)sulfonyl)phenyl)sulfonyl)-4-(4-(((4R)-4′-chloro-4-((3-((5-(2-(2,6-dioxopiperidin-3-yl)-1-oxoisoindolin-5-yl)-2,5-diazabicyclo[2.2.1]heptan-2-yl)methyl)azetidin-1-yl)methyl)-4-methyl-3,4,5,6-tetrahydro-[1,1′-biphenyl]-2-yl)methyl)piperazin-1-yl)benzamide] | 1 to 10 nM | 1 to 10 nM |  | > 10000 nM
10 | C[C@@]1(CN2CCC(C#Cc3ccc4c(c3)CN(C3CCC(=O)NC3=O)C4=O)CC2)CCC(c2ccc(Cl)cc2)=C(CN2CCN(c3ccc(C(=O)NS(=O)(=O)c4ccc(N[C@H](CCN5CCCOCC5)CSc5ccccc5)c(S(=O)(=O)C(F)(F)F)c4)cc3)CC2)C1 (stereo partly drawn) [Compound 132, N-((4-(((R)-4-(1,4-oxazepan-4-yl)-1-(phenylthio)butan-2-yl)amino)-3-((trifluoromethyl)sulfonyl)phenyl)sulfonyl)-4-(4-(((4R)-4′-chloro-4-((4-((2-(2,6-dioxopiperidin-3-yl)-1-oxoisoindolin-5-yl)ethynyl)piperidin-1-yl)methyl)-4-methyl-3,4,5,6-tetrahydro-[1,1′-biphenyl]-2-yl)methyl)piperazin-1-yl)benzamide] | < 1 nM | 1 to 10 nM |  | > 10000 nM
